{"source": "paper PMC10959927", "about": "“Platinum iodido drugs show potential anti-tumor activity, affecting cancer cell metabolism and inducing ROS and senescence in gastrointestinal cancer cells” (Communications Biology, 2024)", "key": {"[1]": {"system": "AGS cells", "assay": "Ratio GSH/GSSG, colorimetric kit", "type": "cell-based, human", "experimental": "(§1) GSH and GSSG levels were determined in AGS and PANC1 cells after 3 and 24 h of treatment with the compounds (using H2O2 as a positive control) with the Glutathione Colorimetric Detection Kit (ThermoFisher) following the manufacturer’s instructions. Thirty minutes after adding the Colorimetric Detection Reagent and the Reaction Mixture, the absorbance was read at 405 nm. A standard curve was generated with each assay to interpolate the sample results. To measure GSSG, standards and samples must be diluted with the Sample Diluent containing 2-vinylpyridine."}, "[2]": {"system": "PANC1 cells", "assay": "Ratio GSH/GSSG, colorimetric kit", "type": "cell-based, human", "experimental": "as §1"}, "[3]": {"system": "AGS cells", "assay": "SA-β-Gal activity, CellEvent Senescence Green flow cytometry", "type": "cell-based, human", "details": "Fig. 3A, replicate values", "experimental": "(§2) SA-β-Gal activity was measured following two different approaches. (i) AGS, MKN45 and PANC1 cells (5 × 10^4) were seeded in 24-multiwell dishes and incubated overnight. […] For flow cytometry cell senescence detection, cells were tripsinized, fixed for 15 min with PFA 4% and stained with the CellEvent Senescense Green Flow Cytometry Assay Kit (C10840, Invitrogen) according to manufacturer’s instructions. CellEvent Senescense Green Probe was used at a 1:500 dilution and fluorescence was detected using the filter (Ex488nm/Em530/30) BL1 with a 4-laser Attune NxT Acoustic Cytometer (Thermo Fisher Scientific). […] After 3 h, the treatments were removed, new supplemented medium was added, and cells were incubated for an additional 24 h. Finally, SA-β-Gal staining was performed using the Senescence Cells Histochemical Staining Kit (CS0030-1KT) according to the manufacturer’s instructions."}, "[4]": {"system": "MKN45 cells", "assay": "SA-β-Gal activity, CellEvent Senescence Green flow cytometry", "type": "cell-based, human", "details": "Fig. 3A, replicate values", "experimental": "as §2"}, "[5]": {"system": "PANC1 cells", "assay": "SA-β-Gal activity, CellEvent Senescence Green flow cytometry", "type": "cell-based, human", "details": "Fig. 3A, replicate values", "experimental": "as §2"}, "[6]": {"system": "HPDE cells", "assay": "Cell viability, crystal violet staining, non-tumoral cells", "details": "for percentage of viable cells: 48 h", "experimental": "(§3) Cell viability was assessed using a crystal violet-based staining method. […] The cells (2 × 10^5) were seeded in 24-multiwell dishes in 0.5 mL of complete medium and incubated overnight. […] After 48 h, cells were fixed with 1% glutaraldehyde (20–30 min), washed with distilled water, and stained with 0.1% crystal violet. […] IC50 were calculated by using GraphPad Prism (version 8.0). Nonlinear regression was used to fit the data to the log (inhibitor) versus response (variable slope)."}, "[7]": {"system": "CC2509 fibroblasts", "assay": "Cell viability, crystal violet staining, non-tumoral cells", "details": "CC2509, 48 h", "experimental": "as §3"}, "[8]": {"system": "PANC1 cells", "assay": "Clonogenic (CFU) assay after 1, 3, 24 h pre-treatment", "type": "cell-based, human", "experimental": "For the clonogenic assay we used two different approaches. […] Then, cells were cultured in a 6-well plate at a very low concentration (2 × 10^3 cells per well) and incubated for 10 days. […] To evaluate the role of ROS in cell proliferation, we supplemented the growth medium with 0.5 mM NAC. After 10 days, the cells were fixed with 1% glutaraldehyde and stained with 0.1% crystal violet. The number of colonies was quantified directly and reflected as CFUs: Colony Forming Units."}, "[9]": {"system": "AGS cells", "assay": "RT-qPCR gene expression (CDKN1A, IL6, MMP1, MAP2K3, SOD1, SOD2, CAT, MKI67, TNFRSF10D)", "type": "cell-based, human", "experimental": "(§4) Total cellular RNA was extracted using Tri-Reagent (Life Technologies), following the manufacturer’s instructions. One μg of total RNA was primed with random primers and cDNA synthesized with an M-MLV reverse transcriptase following the manufacturer’s instructions (Promega). Target genes were amplified using a SYBR Green polymerase chain reaction assay, working with the specific primer sets listed in Table 4.\n(§5) Thermal cycling of the qPCR reaction was initiated with a denaturation step at 95 °C for 10 min. The process consisted of 40 cycles (denaturation at 95 °C for 15 sec, annealing at 60 °C for 30 sec, and elongation at 75 °C for 30 sec). PCR amplifications were carried out in a StepOne Real‐time PCR System (Applied Biosystems, 4376357). Relative mRNA levels were calculated by the delta-Ct method (2-ΔΔCt), where each 1-Ct difference equals a two-fold change in transcript abundance, using GAPDH as an endogenous gene reference. ΔΔCT represents the difference between the mean ΔCT value of the cells tested and the mean ΔCT value of the calibrator, both calculated for the same PCR run."}, "[10]": {"system": "MKN45 cells", "assay": "RT-qPCR gene expression (CDKN1A, IL6, MMP1, MAP2K3, SOD1, SOD2, CAT, MKI67, TNFRSF10D)", "type": "cell-based, human", "experimental": "as §4, §5"}, "[11]": {"system": "PANC1 cells", "assay": "RT-qPCR gene expression (CDKN1A, IL6, MMP1, MAP2K3, SOD1, SOD2, CAT, MKI67, TNFRSF10D)", "type": "cell-based, human", "experimental": "as §4, §5"}, "[12]": {"details": "read-out: IC50 concentration (± SD) at 48 h in non-tumoral cell lines"}, "[13]": {"details": "MKN45, Fig. 3C, replicate values"}, "[14]": {"details": "PANC1, Fig. 3C, replicate values"}}, "note": "“And” between values parts separate entries of the source, which are not always exact repeats. Identical values can stand only once."}
{"molecule": "CC(C)[NH][Pt@SP3]([I])([I])[NH]C(C)C", "note": "[I5, trans-[PtI2(isopropylamine)2]]", "values": [{"measurement": "GSH/GSSG", "setting": "[1]; AGS, 3, relative to Control = 1", "result": "0.9172 and 0.9228 and 0.9268"}, {"measurement": "GSH/GSSG", "setting": "[1]; AGS, 24, relative to Control = 1", "result": "0.5757 and 0.62 and 0.7864"}, {"measurement": "GSH/GSSG", "setting": "[2]; PANC1, 3, relative to Control = 1", "result": "0.746 and 0.7881 and 0.8512"}, {"measurement": "GSH/GSSG", "setting": "[2]; PANC1, 24, relative to Control = 1", "result": "0.8241 and 0.8337 and 0.9592"}, {"measurement": "Fold change % Senescence", "setting": "[3]", "result": "2.4 fold change and 2.38 fold change and 2.1 fold change"}, {"measurement": "Fold change % Senescence", "setting": "[4]", "result": "6.84 fold change and 6.77 fold change and 7.76 fold change"}, {"measurement": "Fold change % Senescence", "setting": "[5]", "result": "2.58 fold change and 1.93 fold change and 2.21 fold change"}, {"measurement": "percentage of viable cells", "setting": "[6]; dose 2.5 µM", "result": "94.0083% and 103.787% and 91.0112%"}, {"measurement": "percentage of viable cells", "setting": "[6]; dose 5 µM", "result": "95.3512% and 98.9765% and 89.3059%"}, {"measurement": "percentage of viable cells", "setting": "[6]; dose 10 µM", "result": "88.9979% and 69.4985% and 69.7172%"}, {"measurement": "percentage of viable cells", "setting": "[6]; dose 25 µM", "result": "58.8843% and 42.8352% and 30.2314%"}, {"measurement": "percentage of viable cells", "setting": "[6]; dose 50 µM", "result": "20.4029% and 27.175% and 15.1157%"}, {"measurement": "IC50", "setting": "[6]; [12]", "result": "26 µM and 25 µM and 26.8 µM"}, {"measurement": "percentage of viable cells", "setting": "[7]; dose 2.5 µM", "result": "100.938% and 100.862% and 91.106%"}, {"measurement": "percentage of viable cells", "setting": "[7]; dose 5 µM", "result": "83.0553% and 85.5747% and 89.9658%"}, {"measurement": "percentage of viable cells", "setting": "[7]; dose 10 µM", "result": "93.9868% and 89.8276% and 94.7548%"}, {"measurement": "percentage of viable cells", "setting": "[7]; dose 25 µM", "result": "85.5057% and 58.6494% and 84.1505%"}, {"measurement": "percentage of viable cells", "setting": "[7]; dose 50 µM", "result": "74.4584% and 49.6552% and 58.3178%"}, {"measurement": "percentage of viable cells", "setting": "[7]; dose 100 µM", "result": "38.4658% and 29.1313% and 33.9772%"}, {"measurement": "IC50", "setting": "[7]; [12]", "result": "74.1 ± 5.42", "unit": "µM"}, {"measurement": "CFUs", "setting": "[8]; PANC1, 1 h pre-treatment at IC50, colonies after 10 days", "result": "176 and 164 and 136"}, {"measurement": "CFUs", "setting": "[8]; PANC1, 3 h pre-treatment at IC50, colonies after 10 days", "result": "104 and 76 and 68"}, {"measurement": "CDKN1A, Fold change vs GAPDH", "setting": "[9]; Fig. 3C, replicate values", "result": "3.618 fold change and 2.316 fold change and 5.653 fold change"}, {"measurement": "IL-6, Fold change vs GAPDH", "setting": "[9]; Fig. 3C, replicate values", "result": "2.065 fold change and 3.223 fold change and 3.287 fold change"}, {"measurement": "MMP-1, Fold change vs GAPDH", "setting": "[9]; Fig. 3C, replicate values", "result": "226.834 fold change and 185.054 fold change and 278.046 fold change"}, {"measurement": "Fold change MAP2K3 vs GAPDH", "setting": "[9]; Fig. 4B, replicate values", "result": "4.889 fold change and 4.056 fold change and 5.8931 fold change"}, {"measurement": "MKI67 Fold change vs GAPDH", "setting": "[9]; Fig. S4C", "result": "0.1267 fold change and 0.1149 fold change and 0.1396 fold change"}, {"measurement": "TNFRSF10D Fold change vs GAPDH", "setting": "[9]; Fig. S4C", "result": "23.1799 fold change and 20.8545 fold change and 25.7647 fold change"}, {"measurement": "CAT (Fold change vs GAPDH)", "setting": "[9]; mRNA vs Control = 1", "result": "0.8688 Fold change and 0.7906 Fold change and 0.9547 Fold change"}, {"measurement": "SOD1 (Fold change vs GAPDH)", "setting": "[9]; mRNA vs Control = 1", "result": "1.921 Fold change and 1.645 Fold change and 2.244 Fold change"}, {"measurement": "SOD2 (Fold change vs GAPDH)", "setting": "[9]; mRNA vs Control = 1", "result": "1.44 Fold change and 1.254 Fold change and 1.654 Fold change"}, {"measurement": "MKI67 Fold change vs GAPDH", "setting": "[10]; MKN45, Fig. S4C", "result": "0.1536 fold change and 0.123 fold change and 0.1918 fold change"}, {"measurement": "TNFRSF10D Fold change vs GAPDH", "setting": "[10]; MKN45, Fig. S4C", "result": "1.273 fold change and 0.9869 fold change and 1.641 fold change"}, {"measurement": "CAT (Fold change vs GAPDH)", "setting": "[10]; MKN45, mRNA vs Control = 1", "result": "0.5641 Fold change and 0.4321 Fold change and 0.7364 Fold change"}, {"measurement": "SOD1 (Fold change vs GAPDH)", "setting": "[10]; MKN45, mRNA vs Control = 1", "result": "2.6 Fold change and 2.293 Fold change and 2.9486 Fold change"}, {"measurement": "SOD2 (Fold change vs GAPDH)", "setting": "[10]; MKN45, mRNA vs Control = 1", "result": "1.053 Fold change and 0.9005 Fold change and 1.465 Fold change"}, {"measurement": "CDKN1A, Fold change vs GAPDH", "setting": "[10]; [13]", "result": "3.253 fold change and 2.596 fold change and 4.076 fold change"}, {"measurement": "IL-6, Fold change vs GAPDH", "setting": "[10]; [13]", "result": "0.4948 fold change and 2.435 fold change and 1.266 fold change"}, {"measurement": "MMP-1, Fold change vs GAPDH", "setting": "[10]; [13]", "result": "7.796 fold change and 5.223 fold change and 11.6341 fold change"}, {"measurement": "Fold change MAP2K3 vs GAPDH", "setting": "[10]; MKN45, Fig. 4B, replicate values", "result": "1.986 fold change and 1.696 fold change and 2.324 fold change"}, {"measurement": "MKI67 Fold change vs GAPDH", "setting": "[11]; PANC1, Fig. S4C", "result": "1.955 fold change and 1.4208 fold change and 2.69 fold change"}, {"measurement": "TNFRSF10D Fold change vs GAPDH", "setting": "[11]; PANC1, Fig. S4C", "result": "5.496 fold change and 3.924 fold change and 7.699 fold change"}, {"measurement": "CAT (Fold change vs GAPDH)", "setting": "[11]; PANC1, mRNA vs Control = 1", "result": "1.529 Fold change and 1.325 Fold change and 1.766 Fold change"}, {"measurement": "SOD1 (Fold change vs GAPDH)", "setting": "[11]; PANC1, mRNA vs Control = 1", "result": "1.806 Fold change and 1.686 Fold change and 1.679 Fold change"}, {"measurement": "SOD2 (Fold change vs GAPDH)", "setting": "[11]; PANC1, mRNA vs Control = 1", "result": "0.6164 Fold change and 0.5428 Fold change and 0.7 Fold change"}, {"measurement": "CDKN1A, Fold change vs GAPDH", "setting": "[11]; [14]", "result": "4.551 fold change and 3.906 fold change and 5.303 fold change"}, {"measurement": "IL-6, Fold change vs GAPDH", "setting": "[11]; [14]", "result": "7.572 fold change and 6.429 fold change and 8.917 fold change"}, {"measurement": "MMP-1, Fold change vs GAPDH", "setting": "[11]; [14]", "result": "12.6345 fold change and 9.391 fold change and 8.708 fold change"}, {"measurement": "Fold change MAP2K3 vs GAPDH", "setting": "[11]; PANC1, Fig. 4B, replicate values", "result": "3.332 fold change and 2.993 fold change and 3.71 fold change"}]}
